In general, solubility refers to the dissolved amount per volume that the medium holds. Higher therefore signals a readily soluble substance.

The values that follow come from patent US12209154B2, “Polymer material” (MENICON CO., LTD., priority 2019, dated 2025).

Bounds are passed on as bounds.

The series in a line: Solubility of compatibilizing monomer in water at 25° C. It counts as physicochemical.
Compound `C=C(C)C(=O)OCC(O)COC(=O)C12CC3CC(CC(C3)C1)C2` (stereo not shown) [AdaCO(OH)MA] had a solubility of under 10000 µg/mL.

As for `C=C(C)C(=O)OCC(O)CC(F)(F)C(F)(F)C(F)(F)C(F)(F)F` (stereo not shown) [C4F9CH2CH(OH)CHMA], the solubility was under 10000 µg/mL. The figure for `C=C(C)C(=O)OCC(O)COC(=O)C1CCCCC1` (stereo not shown) [CyCO(OH)MA] is under 10000 µg/mL; for `C=C(C)C(=O)OC12CC3CC(O)(CC(O)(C3)C1)C2` [DHADM] it is under 10000 µg/mL. With `C=C(C)C(=O)OCC(O)COCC(CC)CCCC` (stereo not shown) [EH(OH)MA], the solubility was under 10000 µg/mL. Regarding `C=CC(=O)OC12CC3CC(CC(O)(C3)C1)C2` [HADA], the solubility is under 10000 µg/mL. In turn, `C=C(C)C(=O)OCC(O)COC(=O)C(O)CCCCCC` (stereo not shown) [MA(OH)OCO(OH)Hp] displayed a solubility of under 10000 µg/mL. Next, `C=C(C)C(=O)OCC(O)COC(C)C` (stereo not shown) [iPr(OH)MA]: under 10000 µg/mL. Compound `C=C(C)C(=O)OCC(O)COC(C)(C)C` (stereo not shown) [tBu(OH)MA] returned a solubility of under 10000 µg/mL. `C=C(C)C(=O)OCC(O)COC(=O)C(C)(C)C` (stereo not shown) [tBuCO(OH)MA]: the solubility is under 10000 µg/mL.
